# According to article PMC8911723, “Design, Synthesis, and Cytotoxic Activity of Novel Natural Arylsulfonamide-Inspired Molecules” (Molecules, 2022):
# Assays:
# [1] = MTT in vitro cytotoxicity assay, HepG2 cells; type: cell-based, human; details: HepG2 hepatocellular liver carcinoma cells; HepG2 human hepatocellular liver carcinoma cell line; MTT assay; triplicate, three independent experiments
# Source text: (§1) Pharmacological evaluation: All target carboxamide derivatives derived from natural arylsulfonamides 10a–r were screened for their potential in vitro cytotoxic effects on A875 (human melanoma), HepG2 (human hepatocellular liver carcinoma), and MARC145 (A subclone of African green monkey kidney cell line MA-104) cell lines using the standard MTT assay, with 5-FU (5-fluorouracil) as a positive control. The IC50 value represents the drug concentration required to inhibit cell growth by 50%.
# (§2) Bioassays: The in vitro cytotoxicity of the novel carbazole derivatives against human melanoma (A875), human hepatocellular liver carcinoma (HepG2), and a subclone of African green monkey kidney cell line MA-104 (MARC145) cell lines was evaluated using the MTT assay. All data were analyzed with SPSS software, and the 50% inhibitory concentrations (IC50) of each compound for the different cell lines were determined. All assays were performed in triplicate on three independent experiments.
# [2] = MTT in vitro cytotoxicity assay, MARC145 cells; type: cell-based, African green monkey; details: MARC145 kidney cells (subclone of MA-104); MARC145 African green monkey kidney cell line; MTT assay; triplicate, three independent experiments
# Source text: as §1, §2
# [3] = MTT in vitro cytotoxicity assay, A875 cells; type: cell-based; details: A875 melanoma cells, A875 human melanoma cell line, triplicate, three independent experiments
# Source text: as §1, §2
# [4] = system: HepG2 (human hepatocellular liver carcinoma) cell line; assay: MTT in vitro cytotoxicity assay, HepG2 cells; type: cell-based; details: HepG2 cells; concentration 40 µg/mL; preliminary screening (Figure 4)
# Source text: as §1, §2
# [5] = system: MARC145 (a subclone of African green monkey kidney cell line MA-104); assay: MTT in vitro cytotoxicity assay, MARC145 cells; type: cell-based; details: MARC145 cells; concentration 40 µg/mL; preliminary screening (Figure 4)
# Source text: as §1, §2
Compound,melting point,IC50 [1],IC50 [2],IC50 [3],Inhibitory activity at 40 µg/mL compared with control 5-FU [4],Inhibitory activity at 40 µg/mL compared with control 5-FU [5]
"O=C(Nc1ccc(S(=O)(=O)Nc2ccccc2Oc2ccccc2)cc1)c1ccccc1C(F)(F)F [10b, N-(4-(N-(2-Phenoxyphenyl)sulfamoyl)phenyl)-2-(trifluoromethyl)benzamide]",–,> 40 µg/mL,> 40 µg/mL,> 40 µg/mL,–,–
"O=c1[nH]cc(F)c(=O)[nH]1 [5-FU, 5-fluorouracil, reference compound]",–,15.1 ± 1.06 µg/mL,13.1 ± 1.32 µg/mL,11.8 ± 2.03 µg/mL,–,–
"O=C(Nc1ccc(S(=O)(=O)Nc2ccccc2C(F)(F)F)cc1)c1cc(Br)nn1-c1ncccc1Cl [10h, 3-Bromo-1-(3-chloropyridin-2-yl)-N-(4-(N-(2-(trifluoromethyl)phenyl)sulfamoyl)phenyl)-1H-pyrazole-5-carboxamide]",181 to 182 °C,14.4 ± 1.89 µg/mL,6.75 ± 0.89 µg/mL,16.8 ± 1.14 µg/mL,–,–
"O=C(Nc1ccc(S(=O)(=O)Nc2ccccc2Oc2ccccc2)cc1)c1cc(Br)nn1-c1ncccc1Cl [10f, 3-Bromo-1-(3-chloropyridin-2-yl)-N-(4-(N-(2-phenoxyphenyl)sulfamoyl)phenyl)-1H-pyrazole-5-carboxamide]",177 to 178 °C,> 40 µg/mL,11.8 ± 2.93 µg/mL,> 40 µg/mL,–,–
"COC(=O)c1ccccc1NC(=O)c1ccccc1NS(=O)(=O)c1ccc(-c2ccccc2)cc1 [NC2, Methyl 2-(2-([1,1′-biphenyl]-4-sulfonamido)benzamido)benzoate]",–,–,> 40 µg/mL,> 40 µg/mL,–,–
"O=C(Nc1ccc(S(=O)(=O)Nc2ccccc2C(F)(F)F)cc1)c1ccccc1C(F)(F)F [10d, 2-(Trifluoromethyl)-N-(4-(N-(2-(trifluoromethyl)phenyl)sulfamoyl)phenyl)benzamide]",–,33.1 ± 2.13 µg/mL,24.9 ± 4.45 µg/mL,> 40 µg/mL,–,–
"Cc1onc(NS(=O)(=O)c2ccc(NC(=O)c3cc(Br)nn3-c3ncccc3Cl)cc2)c1C [10g, 3-Bromo-1-(3-chloropyridin-2-yl)-N-(4-(N-(4,5-dimethylisoxazol-3-yl)sulfamoyl)phenyl)-1H-pyrazole-5-carboxmide]",171 to 172 °C,> 40 µg/mL,> 40 µg/mL,> 40 µg/mL,–,–
"O=C(Nc1ccc(S(=O)(=O)Nc2ccccc2-c2ccccc2)cc1)c1ccccc1C(F)(F)F [10a, N-(4-(N-([1,1′-Biphenyl]-2-yl)sulfamoyl)phenyl)-2-(trifluoromethyl)benzamide]",–,22.1 ± 3.99 µg/mL,13.2 ± 2.49 µg/mL,> 40 µg/mL,–,–
"O=C(Nc1ccc(S(=O)(=O)Nc2ccccc2-c2ccccc2)cc1)c1cc(Br)nn1-c1ncccc1Cl [10e, N-(4-(N-([1,1′-Biphenyl]-2-yl)sulfamoyl)phenyl)-3-bromo-1-(3-chloropyridin-2-yl)-1H-pyrazole-5-carboxamide]",156 to 157 °C,> 40 µg/mL,> 40 µg/mL,> 40 µg/mL,–,–
"Cc1c(C(=O)Nc2ccc(S(=O)(=O)Nc3ccccc3-c3ccccc3)cc2)cccc1-c1ccccc1 [10i, N-(4-(N-([1,1′-Biphenyl]-2-yl)sulfamoyl)phenyl)-2-methyl-[1,1′-biphenyl]-3-carboxamide]",–,> 40 µg/mL,> 40 µg/mL,> 40 µg/mL,–,–
"Cc1c(C(=O)Nc2ccc(S(=O)(=O)Nc3ccccc3C(F)(F)F)cc2)cccc1-c1ccccc1 [10l, 2-Methyl-N-(4-(N-(2-(trifluoromethyl)phenyl)sulfamoyl)phenyl)-[1,1′-biphenyl]-3-carboxamide]",–,9.03 ± 1.49 µg/mL,5.62 ± 0.98 µg/mL,10.8 ± 2.28 µg/mL,significantly higher activities compared with the control,significantly higher activities compared with the control
"Cc1c(C(=O)Nc2ccc(S(=O)(=O)Nc3ccccc3Oc3ccccc3)cc2)cccc1-c1ccccc1 [10j, 2-Methyl-N-(4-(N-(2-phenoxyphenyl)sulfamoyl)phenyl)-[1,1′-biphenyl]-3-carboxamide]",–,> 40 µg/mL,> 40 µg/mL,> 40 µg/mL,–,–
"Cc1onc(NS(=O)(=O)c2ccc(NC(=O)c3ccccc3C(F)(F)F)cc2)c1C [10c, N-(4-(N-(4,5-Dimethylisoxazol-3-yl)sulfamoyl)phenyl)-2-(trifluoromethyl)benzamide]",183 to 184 °C,> 40 µg/mL,> 40 µg/mL,> 40 µg/mL,–,–
"O=C(Nc1ccc(S(=O)(=O)Nc2ccccc2C(F)(F)F)cc1)c1ccccc1-c1ccc(C(F)(F)F)cc1 [10p, 4′-(Trifluoromethyl)-N-(4-(N-(2-(trifluoromethyl)phenyl)sulfamoyl)phenyl)-[1,1′-biphenyl]-2-carboxamide]",–,9.6 ± 0.88 µg/mL,8.5 ± 2.55 µg/mL,20.4 ± 3.99 µg/mL,significantly higher activities compared with the control,significantly higher activities compared with the control

# Now from value to compound, other results behind:
melting point,Compound,IC50 [1],IC50 [2],IC50 [3],Inhibitory activity at 40 µg/mL compared with control 5-FU [4],Inhibitory activity at 40 µg/mL compared with control 5-FU [5]
159 to 160 °C,"CC(C(=O)Nc1ccc(S(=O)(=O)Nc2ccccc2C(F)(F)F)cc1)c1ccc2c(c1)[nH]c1ccc(Cl)cc12 (stereo not drawn) [10q, 2-(6-Chloro-9H-carbazol-2-yl)-N-(4-(N-(2-(trifluoromethyl)phenyl)sulfamoyl)phenyl)propanamide]",3.55 ± 0.63 µg/mL,2.95 ± 0.78 µg/mL,4.19 ± 0.78 µg/mL,significantly higher activities compared with the control,significantly higher activities compared with the control
205 to 207 °C,"O=C(O)c1ccccc1NS(=O)(=O)c1ccc(-c2ccccc2)cc1 [NC1, 2-([1,1′-Biphenyl]-4-sulfonamido)benzoic acid]",–,25.8 ± 10.4 µg/mL,27.2 ± 5.39 µg/mL,–,–
173 to 174 °C,"O=C(Nc1ccc(S(=O)(=O)Nc2ccccc2Oc2ccccc2)cc1)c1ccccc1-c1ccc(C(F)(F)F)cc1 [10n, N-(4-(N-(2-Phenoxyphenyl)sulfamoyl)phenyl)-4′-(trifluoromethyl)-[1,1′-biphenyl]-2-carboxamide]",> 40 µg/mL,22.6 ± 2.78 µg/mL,> 40 µg/mL,–,–
199 to 200 °C,"Cc1onc(NS(=O)(=O)c2ccc(NC(=O)c3ccccc3-c3ccc(C(F)(F)F)cc3)cc2)c1C [10o, N-(4-(N-(4,5-Dimethylisoxazol-3-yl)sulfamoyl)phenyl)-4′-(trifluoromethyl)-[1,1′-biphenyl]-2-carboxamide]",> 40 µg/mL,> 40 µg/mL,> 40 µg/mL,–,–
166 to 167 °C,"CC(C(=O)Nc1ccc(S(=O)(=O)Nc2ccccc2Oc2ccccc2)cc1)c1ccc2c(c1)[nH]c1ccc(Cl)cc12 (stereo not drawn) [10r, 2-(6-Chloro-9H-carbazol-2-yl)-N-(4-(N-(2-phenoxyphenyl)sulfamoyl)phenyl)propanamide]",8.84 ± 1.68 µg/mL,5.96 ± 1.33 µg/mL,15.2 ± 2.4 µg/mL,significantly higher activities compared with the control,significantly higher activities compared with the control
156 to 157 °C,"Cc1onc(NS(=O)(=O)c2ccc(NC(=O)c3cccc(-c4ccccc4)c3C)cc2)c1C [10k, N-(4-(N-(4,5-Dimethylisoxazol-3-yl)sulfamoyl)phenyl)-2-methyl-[1,1′-biphenyl]-3-carboxamide]",34.7 ± 2.94 µg/mL,> 40 µg/mL,> 40 µg/mL,–,–
163 to 164 °C,"O=C(Nc1ccc(S(=O)(=O)Nc2ccccc2-c2ccccc2)cc1)c1ccccc1-c1ccc(C(F)(F)F)cc1 [10m, N-(4-(N-([1,1′-Biphenyl]-2-yl)sulfamoyl)phenyl)-4′-(trifluoromethyl)-[1,1′-biphenyl]-2-carboxamide]",> 40 µg/mL,> 40 µg/mL,> 40 µg/mL,–,–
